Experiments:
[1] = test system: monocyte-derived macrophages (MDM); experiment: Intracellular CBV-TP in MDM after 100 μM ABC or ProTide nanoformulations (uptake and retention); assay type: cell-based; conditions: human
Description: Briefly, MDM were treated with different nanoformulations at a concentration of 100 μM for 1, 2, 4 and 8 hours. At select time points, adherent MDM were collected in 1 mL PBS after washing with 1 mL PBS twice. MDM were pelleted by centrifugation at 3,000 rpm for 8 minutes. The cell pellet was reconstituted in 200 μl methanol and probe sonication (10 seconds) was used to break the cells and extract drugs. After probe sonication, cell debris was pelleted by centrifugation at 14,000 rpm for 10 minutes and 4° C. The supernatant was analyzed for prodrug level using HPLC-UV/Vis. For retention, MDM were treated with 100 μM different nanoformulations for 8 hours. The nanoformulation-containing media were replaced with fresh media after washing MDM with PBS twice. At days 1, 5, 10, 15, 20, 25 and 30, MDM were collected in 1 mL PBS after washing with 1 mL PBS twice. The samples were processed as described above for analysis using HPLC. Intracellular CBV-TP levels were also measured for as an indicator of cell uptake and retention. Briefly, cells were scraped into PBS, pelleted by centrifugation at 3,000 rpm for 8 minutes, and reconstituted in 200 μl 70% methanol. CBV-TP was extracted, and the samples were analyzed by LC-MS/MS as described (Gautam, et al., J. Pharm. Biomed. Anal. (2018) 153:248-259).

[2] = test system: HIV-1ADA; experiment: Antiretroviral efficacy of nanoformulations in MDM challenged with HIV-1ADA (RT activity, p24); assay type: cell-based; conditions: 100 μM 8 hours, all time points
Description: Antiretroviral efficacy of nanoformulations: Antiviral efficacies of ABC and the ProTide nanoformulations in MDM were assessed as described (Singh, et al., Nanomedicine (2016) 11:1913-1927). MDM were treated with 100 μM different nanoformulations for 8 hours. Then nanoformulation-containing medium was replaced with fresh medium after washing MDM with PBS twice. Half media changes were conducted every other day. At predetermined time points, days 1, 5, 10, 15, 20, 25 and 30, MDM were infected with HIV-1ADA for 4 hours at a MOI of 0.1 and cultured with every-other-day half media changes for an additional 10 days. At day 10, supernatant was collected for RT assay and MDM were fixed with paraformaldehyde and immunostained for expression of HIVp24. Untreated, uninfected MDM served as negative controls (control), while MDM exposed to HIV-1ADA but not treated with nanoformulations, served as positive controls (HIV-1). For NM3ABC, a concentration response study was also conducted. MDM were treated with 1, 10, 25, 50 or 100 μM NM3ABC for 8 hours. The treated MDM were then washed twice with PBS. MDM were cultured for an additional 30 days in fresh media with half media changes every other day. At day 30, MDM were challenged with HIV-1ADA at a MOI of 0.1 for 4 hours. Excess virus was washed out with PBS and MDM were cultured for another 10 days. […]

[3] = test system: HIV-1ADA; experiment: IC50 determination of ABC, MABC, PABC in MDM challenged with HIV-1ADA (RT activity); assay type: cell-based; conditions: Human immunodeficiency virus 1, 240 h, HIV-1ADA MOI 0.1, RT activity day 10, read-out: IC50 on reverse transcriptase
Description: Antiretroviral activities. Antiretroviral efficacy was determined by measurements of HIV reverse transcriptase (RT) activity. For IC50 determination, MDM were exposed to various concentrations (0.01-1000 nM) of ABC, MABC or PABC for 1 hour followed by challenge with HIV-1ADA at a multiplicity of infection (MOI) of 0.1 infectious particles per cell for 4 hours. Following viral challenge, cells were washed and incubated with the same concentration of drug used before infection for an additional 10 days in culture. Culture fluids were collected on day 10 for the measurement of RT activity. To assess antiretroviral efficacy, MDM were treated with 100 μM ABC, PABC or NPABC as described above for 8 hours. After treatment, cells were washed with PBS and cultured with fresh media, with half-media exchanges every other day. At 0, 4, 12 hours, and 1, 5, 10, 15 or 20 days after treatment, cells were challenged with HIV-1ADA at an MOI of 0.1 infectious particles per cell for 16 hours. After viral infection, the cells were cultured an additional 10 days with half-media exchanges every other day. Culture fluids were collected for measurement of RT activity. Cells were fixed with 4% PFA and expression of HIV-1 p24 antigen was determined by immunocytochemistry.

[4] = test system: monocyte-derived macrophages (MDM); experiment: Macrophage uptake and retention of ABC, NMABC, NPABC; assay type: cell-based, human; conditions: 100 μM, 8 hours loading
Description: Macrophage uptake and retention. Human monocytes were obtained by leukapheresis from HIV-1/2 and hepatitis B seronegative donors, and then purified by counter-current centrifugal elutriation as described (Balkundi, et al., Intl. J. Nanomed. (2011) 6:3393-3404; Nowacek, et al., Nanomed. (2009) 4(8):903-917). Human monocytes were plated in a 12-well plate at a density of 1.0×10^6 cells per well using DMEM supplemented with 10% heat-inactivated pooled human serum, 1% glutamine, 10 μg/mL ciprofloxacin, and 50 μg/mL gentamicin. Cells were maintained at 37° C. in a 5% CO2 incubator. After 7 days of differentiation in the presence of 1000 U/mL recombinant human macrophage colony stimulating factor (MCSF), MDM were treated with 100 μM ABC, nanoformulated myristoylated ABC (NMABC; described in PCT/US15/54826), or NPABC. Uptake of drug was assessed by measurements of intracellular drug concentrations at 1, 2, 4 and 8 hours after treatment. For drug retention studies, cells were treated for 8 hours then washed with PBS and maintained with half-media changes every other day until collection at days 1, 5, 10, 15 and 20. For both studies, adherent MDM were washed with PBS, then scraped into PBS, and counted at indicated time points using an Invitrogen Countess Automated Cell Counter (Carlsbad, Calif.). […] Drug content was determined by UPLC-UV/Vis.

Structure (SMILES): Nc1nc(NC2CC2)c2ncn([C@H]3C=C[C@@H](CO)C3)c2n1 [ABC, abacavir]
- decrease of CBV-TP from 4 hours to 8 hours [1]: 37%
- retention of CBV-TP in MDMs, detected/sustained until day ([1]; 30 day): 5 days
- protection against viral infection [2]: minimal protection against viral infection
- IC50 [3]: 131 nM
- eliminated from MDM within [4]: within a day

From patent US11839623B2, “Antiviral prodrugs and formulations thereof” (BOARD OF REGENTS OF THE UNIVERSITY OF NEBRASKA, priority 2018, dated 2023)
